Drawing on US8574563B2 (Bristol-Myers Squibb Company, priority 2006, dated 2013), this text covers EC50 for 20 compounds.

One may read the EC50 as the concentration needed to bring the measured effect to its halfway point.

In the assay the test system is HCV 1b-377-neo replicon cells. In words: HCV replicon assay, HCV 1b-377-neo replicon cells (1b FRET). The class given is cell-based, Hepatitis C virus genotype 1b. The following applies: Hepatitis C virus, HCV 1b-377-neo replicon cells; HCV 1b genotype; read-out: EC50 range against HCV 1b (Table 2, Range). A digest of the protocol: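 FRET-based replicon assay in HCV 1b-377-neo cells, including a comparison line carrying the NS5A Y2065H mutation that confers resistance to a reference compound.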
In general terms: In antiviral work, replicon cells carry a viral genome segment that copies itself.

Turning to `CCN(CC)[C@@H](C(=O)N1C[C@H](F)C[C@H]1c1ncc(-c2ccc(-c3ccc(-c4cnc([C@@H]5C[C@@H](F)CN5C(=O)[C@@H](c5ccccc5)N(CC)CC)[nH]4)cc3)cc2)[nH]1)c1ccccc1` [JG-17, (1R,1′R)-2,2′-(4,4′-biphenyldiylbis(1H-imidazole-5,2-diyl((2S,4R)-4-fluoro-2,1-pyrrolidinediyl)))bis(N,N-diethyl-2-oxo-1-phenylethanamine)], the half-maximal effective concentration (EC50) is 0.001 to 0.999 nM.

As for `O=C([C@@H](O)C1CCCCC1)N1CCC[C@H]1c1ncc(-c2ccc(-c3ccc(-c4cnc([C@@H]5CCCN5C(=O)[C@@H](O)C5CCCCC5)[nH]4)cc3)cc2)[nH]1` [LS2, (1S,1′S)-2,2′-(4,4′-biphenyldiylbis(1H-imidazole-5,2-diyl(2S)-2,1-pyrrolidinediyl))bis(1-cyclohexyl-2-oxoethanol)], the EC50 fell in the range of 1 to 99 nM.

As for `CC(C)C[C@H](O)C(=O)N1CCC[C@H]1c1ncc(-c2ccc(-c3ccc(-c4cnc([C@@H]5CCCN5C(=O)[C@@H](O)CC(C)C)[nH]4)cc3)cc2)[nH]1` [LS3, (2S,2′S)-1,1′-(4,4′-biphenyldiylbis(1H-imidazole-5,2-diyl(2S)-2,1-pyrrolidinediyl))bis(4-methyl-1-oxo-2-pentanol)], the half-maximal effective concentration (EC50) lay within 1 to 99 nM.

In the case of `CC(C)[C@H](O)C(=O)N1CCC[C@H]1c1ncc(-c2ccc(-c3ccc(-c4cnc([C@@H]5CCCN5C(=O)[C@@H](O)C(C)C)[nH]4)cc3)cc2)[nH]1` [LS4, (2S,2′S)-1,1′-(4,4′-biphenyldiylbis(1H-imidazole-5,2-diyl(2S)-2,1-pyrrolidinediyl))bis(3-methyl-1-oxo-2-butanol)], the EC50 is 1 to 99 nM.

As for `CN[C@@H](C)C(=O)N1CCC[C@H]1c1ncc(-c2ccc(-c3ccc(-c4cnc([C@@H]5CCCN5C(=O)[C@H](C)NC)[nH]4)cc3)cc2)[nH]1` [LS6, (2S,2′S)-1,1′-(4,4′-biphenyldiylbis(1H-imidazole-5,2-diyl(2S)-2,1-pyrrolidinediyl))bis(N-methyl-1-oxo-2-propanamine)], the EC50 was in the range of 100 to 999 nM.

In the case of `O=C1N[C@H](C(=O)N2CCC[C@H]2c2ncc(-c3ccc(-c4ccc(-c5cnc([C@@H]6CCCN6C(=O)[C@@H]6CCOC(=O)N6)[nH]5)cc4)cc3)[nH]2)CCO1` [LS11, (4S,4′S)-4,4′-(4,4′-biphenyldiylbis(1H-imidazole-5,2-diyl(2S)-2,1-pyrrolidinediylcarbonyl))bis(1,3-oxazinan-2-one)], the concentration for a half-maximal effect (EC50) was 1000 to 10000 nM.

On to `CCN(CC)[C@@H](C(=O)N1CCC[C@H]1c1ncc(-c2ccc(-c3ccc(-c4cnc([C@@H]5CCCN5C(=O)[C@@H](NC(=O)OC)C5CCOCC5)[nH]4)cc3)cc2)[nH]1)c1ccccc1` [LS14, methyl ((1S)-2-((2S)-2-(5-(4′-(2-((2S)-1-((2R)-2-(diethylamino)-2-phenylacetyl)-2-pyrrolidinyl)-1H-imidazol-5-yl)-4-biphenylyl)-1H-imidazol-2-yl)-1-pyrrolidinyl)-2-oxo-1-(tetrahydro-2H-pyran-4-yl)ethyl)carbamate], for which the EC50 is 0.001 to 0.999 nM.

Turning to `C=CCCOC(=O)N[C@H](C(=O)N1CCC[C@H]1c1ncc(-c2ccc(-c3ccc(-c4cnc([C@@H]5CCCN5C(=O)[C@@H](NC(=O)OCCC=C)C(C)C)[nH]4)cc3)cc2)[nH]1)C(C)C` [LS16, 3-buten-1-yl ((1S)-1-(((2S)-2-(5-(4′-(2-((2S)-1-((2S)-2-(((3-buten-1-yloxy)carbonyl)amino)-3-methylbutanoyl)-2-pyrrolidinyl)-1H-imidazol-5-yl)-4-biphenylyl)-1H-imidazol-2-yl)-1-pyrrolidinyl)carbonyl)-2-methylpropyl)carbamate], the EC50 is 1 to 99 nM.

Take `CNCC(=O)N1CCC[C@H]1c1ncc(-c2ccc(-c3ccc(-c4cnc([C@@H]5CCCN5C(=O)[C@@H](NC(=O)OC)C(C)C)[nH]4)cc3)cc2)[nH]1` [LS20, methyl ((1S)-2-methyl-1-(((2S)-2-(5-(4′-(2-((2S)-1-(N-methylglycyl)-2-pyrrolidinyl)-1H-imidazol-5-yl)-4-biphenylyl)-1H-imidazol-2-yl)-1-pyrrolidinyl)carbonyl)propyl)carbamate]: the EC50 was 0.001 to 0.999 nM.

On to `CCNCC(=O)N1CCC[C@H]1c1ncc(-c2ccc(-c3ccc(-c4cnc([C@@H]5CCCN5C(=O)[C@@H](NC(=O)OC)C(C)C)[nH]4)cc3)cc2)[nH]1` [LS21, methyl ((1S)-1-(((2S)-2-(5-(4′-(2-((2S)-1-(N-ethylglycyl)-2-pyrrolidinyl)-1H-imidazol-5-yl)-4-biphenylyl)-1H-imidazol-2-yl)-1-pyrrolidinyl)carbonyl)-2-methylpropyl)carbamate], for which the EC50 is 0.001 to 0.999 nM.

As for `COC(=O)N[C@H](C(=O)N1CCC[C@H]1c1ncc(-c2ccc(-c3ccc(-c4cnc([C@@H]5CCCN5C(=O)CNCc5ccccc5)[nH]4)cc3)cc2)[nH]1)C(C)C` [LS22, methyl ((1S)-1-(((2S)-2-(5-(4′-(2-((2S)-1-(N-benzylglycyl)-2-pyrrolidinyl)-1H-imidazol-5-yl)-4-biphenylyl)-1H-imidazol-2-yl)-1-pyrrolidinyl)carbonyl)-2-methylpropyl)carbamate], the concentration giving a half-maximal response (EC50) lay in the range of 0.001 to 0.999 nM.

With `COC(=O)N[C@H](C(=O)N1CCC[C@H]1c1ncc(-c2ccc(-c3ccc(-c4cnc([C@@H]5CCCN5C(=O)CNCC(C)C)[nH]4)cc3)cc2)[nH]1)C(C)C` [LS23, methyl ((1S)-1-(((2S)-2-(5-(4′-(2-((2S)-1-(N-isobutylglycyl)-2-pyrrolidinyl)-1H-imidazol-5-yl)-4-biphenylyl)-1H-imidazol-2-yl)-1-pyrrolidinyl)carbonyl)-2-methylpropyl)carbamate], the EC50 lay within 0.001 to 0.999 nM.

`CCC(C)NCC(=O)N1CCC[C@H]1c1ncc(-c2ccc(-c3ccc(-c4cnc([C@@H]5CCCN5C(=O)[C@@H](NC(=O)OC)C(C)C)[nH]4)cc3)cc2)[nH]1` (stereo partly drawn) [LS24, methyl ((1S)-1-(((2S)-2-(5-(4′-(2-((2S)-1-(N-sec-butylglycyl)-2-pyrrolidinyl)-1H-imidazol-5-yl)-4-biphenylyl)-1H-imidazol-2-yl)-1-pyrrolidinyl)carbonyl)-2-methylpropyl)carbamate]: the concentration giving a half-maximal response (EC50) is 0.001 to 0.999 nM.

As to `COC(=O)N[C@H](C(=O)N1CCC[C@H]1c1ncc(-c2ccc(-c3ccc(-c4cnc([C@@H]5CCCN5C(=O)CNC(C)C)[nH]4)cc3)cc2)[nH]1)C(C)C` [LS25, methyl ((1S)-1-(((2S)-2-(5-(4′-(2-((2S)-1-(N-isopropylglycyl)-2-pyrrolidinyl)-1H-imidazol-5-yl)-4-biphenylyl)-1H-imidazol-2-yl)-1-pyrrolidinyl)carbonyl)-2-methylpropyl)carbamate], the EC50 was 0.001 to 0.999 nM.

In the case of `COC(=O)N[C@H](C(=O)N1CCC[C@H]1c1ncc(-c2ccc(-c3ccc(-c4cnc([C@@H]5CCCN5C(=O)CN(C(C)C)C(C)C)[nH]4)cc3)cc2)[nH]1)C(C)C` [LS26, methyl ((1S)-1-(((2S)-2-(5-(4′-(2-((2S)-1-(N,N-diisopropylglycyl)-2-pyrrolidinyl)-1H-imidazol-5-yl)-4-biphenylyl)-1H-imidazol-2-yl)-1-pyrrolidinyl)carbonyl)-2-methylpropyl)carbamate], the EC50 was 0.001 to 0.999 nM.

With `COC(=O)N[C@H](C(=O)N1CCC[C@H]1c1ncc(-c2ccc(-c3ccc(-c4cnc([C@]5(C)CCCN5C(=O)[C@@H](NC(=O)OC)C(C)C)[nH]4)cc3)cc2)[nH]1)C(C)C` [LS36, methyl ((1S)-1-(((2S)-2-(5-(4′-(2-((2S)-1-((2S)-2-((methoxycarbonyl)amino)-3-methylbutanoyl)-2-pyrrolidinyl)-1H-imidazol-5-yl)-4-biphenylyl)-1H-imidazol-2-yl)-2-methyl-1-pyrrolidinyl)carbonyl)-2-methylpropyl)carbamate], the EC50 lay within 0.001 to 0.999 nM.

On to `CC(C)[C@H](NC(=O)N(C)C)C(=O)N1CCC[C@H]1c1ncc(-c2ccc(-c3ccc(-c4cnc([C@@H]5CCCN5C(=O)[C@@H](NC(=O)N(C)C)C(C)C)[nH]4)cc3)cc2)[nH]1` [OL-1, 3-((1S)-1-(((2S)-2-(4-(4′-(2-((2S)-1-((2S)-2-((dimethylcarbamoyl)amino)-3-methylbutanoyl)-2-pyrrolidinyl)-1H-imidazol-4-yl)-4-biphenylyl)-1H-imidazol-2-yl)-1-pyrrolidinyl)carbonyl)-2-methylpropyl)-1,1-dimethylurea], for which the EC50 was in the range of 0.001 to 0.999 nM.

Take `C[C@H](NC(=O)N(C)C)C(=O)N1CCC[C@H]1c1ncc(-c2ccc(-c3ccc(-c4cnc([C@@H]5CCCN5C(=O)[C@H](C)NC(=O)N(C)C)[nH]4)cc3)cc2)[nH]1` [OL-2, 3-((1S)-2-((2S)-2-(4-(4′-(2-((2S)-1-(N-(dimethylcarbamoyl)-L-alanyl)-2-pyrrolidinyl)-1H-imidazol-4-yl)-4-biphenylyl)-1H-imidazol-2-yl)-1-pyrrolidinyl)-1-methyl-2-oxoethyl)-1,1-dimethylurea]: the EC50 fell in the range of 0.001 to 0.999 nM.

With `CC(C)[C@H](NC(=O)OCCF)C(=O)N1CCC[C@H]1c1ncc(-c2ccc(-c3ccc(-c4cnc([C@@H]5CCCN5C(=O)[C@@H](NC(=O)OCCF)C(C)C)[nH]4)cc3)cc2)[nH]1` [OL-3, 2-fluoroethyl ((1S)-1-(((2S)-2-(4-(4′-(2-((2S)-1-((2S)-2-(((2-fluoroethoxy)carbonyl)amino)-3-methylbutanoyl)-2-pyrrolidinyl)-1H-imidazol-4-yl)-4-biphenylyl)-1H-imidazol-2-yl)-1-pyrrolidinyl)carbonyl)-2-methylpropyl)carbamate], the EC50 was in the range of 1 to 99 nM.

As to `CCC(CC)[C@H](NC(=O)OC)C(=O)N1CCC[C@H]1c1ncc(-c2ccc(-c3ccc(-c4cnc([C@@H]5CCCN5C(=O)[C@@H](NC(=O)OC)C(CC)CC)[nH]4)cc3)cc2)[nH]1` [OL-4, methyl ((1S)-2-ethyl-1-(((2S)-2-(4-(4′-(2-((2S)-1-((2S)-3-ethyl-2-((methoxycarbonyl)amino)pentanoyl)-2-pyrrolidinyl)-1H-imidazol-4-yl)-4-biphenylyl)-1H-imidazol-2-yl)-1-pyrrolidinyl)carbonyl)butyl)carbamate], the EC50 is 0.001 to 0.999 nM.
